From US20070281040A1, “COMBINATION THERAPY OF HEDGEHOG INHIBITORS, RADIATION AND CHEMOTHERAPEUTIC AGENTS” (THE UNIVERSITY OF CHICAGO, priority 2004, published 2007)
Where two headings read alike, the source gives them in different places.

Key:
[1] = test system: Mia PaCa-2 cells; assay: Colony formation assay
Protocol: Mia PaCa-2 cells were grown in DMEM high glucose, and supplemented with L-glutamine, 10% fetal bovine serum (FBS), and penicillin/streptomycin 1%.
250 to 1000 cells were plated in 60 mm dishes. Cells were incubated overnight. At twenty four hours cells were irradiated (3.5 Gy). Cyclopamine 2-10 μMol (Toronto Research Chemicals, TRC, supplier, Canada) was added to culture media, or combination of both. For chemotherapeutic agents, the drug was added to culture media at appropriate concentrations 24 hours after plating. Cultures were incubated for 10-14 days. […] Plating efficiency was normalized compared to control.

[2] = test system: BxPC-3 cells; assay: Colony formation assay; format: cell-based, human
Protocol: (§1) Cells were incubated overnight. […] Cultures were incubated for 10-14 days. […] Plating efficiency was normalized compared to control.

[3] = test system: HCT 116 cells; assay: Colony formation assay; format: cell-based, human
Protocol: as §1

[4] = test system: Mia PcCa-2 cells; assay: Annexin V-PE apoptosis assay; format: cell-based, human; details: 24 hours
Protocol: (§2) Cyclopamine 4 μmol was added to culture media of exponentially growing cells with or without chemotherapeutic agents and irradiated at 12 hours. Cells were trypsinized after 24, 48 or 72 hours. Annexin levels were measured (Annexin V: PE Apoptosis Detection Kit, BD Biosciences Pharningen™, San Jose, Calif.) for 0.5×10^6 freshly detached cells. The presence of membrane permeabilization was monitored by 7-AAD (7-Amino-actinomycinD) staining per manufacturer's protocol. Cells were subsequently analyzed by FACScan (BD FACSCanto™, BD Biosciences Immunocytometry Systems™, San Jose, Calif. with the use of CellQuest software (BD CellQuest™ Pro, BD Biosciences Immunocytometry Systems™, San Jose, Calif. The percentage of apoptotic cells was calculated by scoring for cells positive for either annexin alone (early apoptotic) or both annexin and 7-AAD (late apoptotic). All experiments were done in triplicate.

[5] = test system: hedgehog expressing tumor cells; format: cell-based
Protocol: as §2

[6] = test system: prostate cancer xenografts; details: high dose treatment; cited from earlier work
[7] = test system: murine tumor allografts of medulloblastoma; details: mouse, in vivo; cited from earlier work
[8] = test system: pancreatic cancer cell lines with over-activation of Hh pathway signaling; details: cited from earlier work
[9] = test system: hedgehog expressing tumor cells; format: cell-based; remark: listed apart in the source
[10] = cyclopamine 4 μM and irradiation 3.5 Gy

In the case of `N.N.[Cl][Pt][Cl]` [Cisplatin], the “survival (colony formation)” value ([1]; cisplatin 0.8 μM alone) is reported as 35%.

In the case of `Nc1ccn([C@@H]2O[C@H](CO)[C@@H](O)C2(F)F)c(=O)n1` [Gemcitabine], the “survival (colony formation)” value ([1]; gemcitabine 7.3 nM alone) is reported as 35%.

With `CC1=C2C[C@H]3[C@@H](CC=C4C[C@@H](O)CC[C@@]43C)[C@@H]2CC[C@]12O[C@@H]1C[C@H](C)CN[C@H]1[C@H]2C` [cyclopamine] the “survival (colony formation)” value ([1]; cyclopamine 4 μM alone) was 29%, the “survival (colony formation)” value [1, 10] was 4% and the “survival (colony formation)” value ([1]; cyclopamine 10 μM) was 7%. The “cytotoxic effect when combined with irradiation (in words)” value ([1]; hedgehog expressing tumor cells) was “additive cytotoxic effect”, the “survival (colony formation)” value [2, 10] was 7% and the “survival (colony formation)” value ([2]; cyclopamine 10 μM) was 11%. The “survival (colony formation)” value ([2]; cyclopamine 4 μMol alone) was 33%, the “effect on survival following irradiation (in words)” value ([3]; cells that do not express the hedgehog pathway) was “did not have a significant effect on survival” and the “survival (colony formation)” value [3, 10] was 35%. For the same molecule, the “survival (colony formation)” value ([3]; cyclopamine 10 μM) was 74%, the “survival (colony formation)” value ([3]; cyclopamine 4 μMol alone) was 92% and the “apoptosis (AnnexinV staining)” value ([4]; cyclopamine 4 μMol) was 18.2%. For the same molecule, the “apoptosis of combination with radiation vs radiation alone (in words)” value ([5]; cyclopamine 4 μMol and radiation 3.5 Gy) was “not significantly different from radiation alone”, the “apoptotic cells (Annexin assay)” value ([5]; cyclopamine 4 μMol and radiation 3.5 Gy, 24 hours) was 32.11% and the “apoptotic cells (Annexin assay)” value ([5]; cyclopamine 4 μMol and radiation 3.5 Gy, 48 hours) was 28.5%. The “apoptotic cells (Annexin assay)” value ([5]; cyclopamine 4 μMol and radiation 3.5 Gy, 72 hours) was 32.3%, the “apoptotic cells (Annexin assay)” value ([5]; cyclopamine 4 μMol, 24 hours) was 18.15% and the “apoptotic cells (Annexin assay)” value ([5]; cyclopamine 4 μMol, 48 hours) was 29.8%. For the same molecule, the “apoptotic cells (Annexin assay)” value ([5]; cyclopamine 4 μMol, 72 hours) was 32.9%, the “tumor response (in words)” value [6] was “complete regression” and the “tumor response (in words)” value [7] was “anti-tumor effects”. The “apoptosis (in words)” value [8] was “induced apoptosis”.

For `CC1=C2C(=O)C3C(CC=C4CC(O)CCC43C)C2CCC12OC1CC(C)CNC1C2C` (centres unmarked) [jervine], the “apoptosis of combination with radiation vs radiation alone (in words)” value ([9]; jervine 4 μMol and radiation 3.5 Gy) was “differ little from radiation alone”, the “apoptosis (Annexin V assay, in words)” value ([9]; jervine 4 μMol, 24, 48 or 72 hours) was “induces apoptosis in an increasing percentage of cells in a time-dependent manner” and the “cytotoxic effect when combined with irradiation (in words)” value ([9]; jervine, hedgehog expressing tumor cells) was “additive cytotoxic effect”.

For `CC(=O)O[C@H]1C(=O)[C@@]2(C)[C@H]([C@H](OC(=O)c3ccccc3)[C@]3(O)C[C@H](OC(=O)[C@H](O)[C@@H](NC(=O)c4ccccc4)c4ccccc4)C(C)=C1C3(C)C)[C@]1(OC(C)=O)CO[C@@H]1C[C@@H]2O` [taxol, Paclitaxel], the “survival (colony formation)” value ([1]; taxol 3.5 nM alone) was 91% and the “apoptosis (AnnexinV staining)” value ([4]; taxol 1.7 nM) was 64.9%.
